Results from patent US7226730B1, “Transgenic animals and cell lines for screening drugs effective for the treatment or prevention of Alzheimer's Disease” (The General Hospital Corporation, priority 1997, dated 2007).

Tested on: CYZ neuronal cells stably transfected with AD7c-NTP
Test: Crystal Violet viability assay in IPTG-induced AD7c-NTP expressing neuronal cells
Conditions: for effect on cell death (percent change in viability, induced over uninduced) / effect on nitric oxide synthase toxicity attributable to AD7c-NTP expression: CYZ cells induced to express AD7c-NTP, FIG. 12; for cell viability under oxidative stress toxins: LacB and LacF cells, 3 mM IPTG 24 or 48 hrs, toxin 6 or 24 hrs, vs LacA-control, FIGS. 10A and 10B
Experimental: AD7c-NTP was cloned into a Lac-Switch expression vector (Stratgene), and CYZ neuronal cells were stably transformed with the construct. Several cell lines were selected that expressed AD7c-NTP at various levels, Lac A-Lac F, after induction of protein expression with IPTG.
Briefly, 10^4 cells/well were seeded into 96-well plates, and were induced to express AD7c-NTP for a period of 6–18 hrs; additionally, in some experiments, cells were exposed to toxins or protective agents for a similar period of time. At the end the treatment period, cells were fixed, permeabilized and immunostained with the appropriate antibody following the ABS procedure. Quantitation was done by incubating cells with a soluble chromagen, stopping the reaction with 2M H2SO4 and determining chromagen absorbance in an automated ELISA reading machine.
For Experiments determining cell viability, after culture and treatment as for the MICE assay, culture media was replaced with a Crystal Violet/PBS/formalin solution. After staining, cells were rinsed thoroughly and lysed with a PBS/1% SDS solution, and absorbance was determined with an automated ELSA reader. Results were graphed as percent viability.

| SMILES | effect on cell death (percent change in viability, induced over uninduced) | cell viability under oxidative stress toxins | effect on nitric oxide synthase toxicity attributable to AD7c-NTP expression |
| --- | --- | --- | --- |
| CCN(CC)C(=S)S [diethyldithiocarbamic acid] | exacerbate cell death | increased hypersensitivity |  |
| N=C(N)NCCC[C@H](N)C(=O)O [L-arginine] |  |  | inhibit or reduce |
| COC(=O)[C@@H](N)CCCNC(=N)N[N+](=O)[O-] [L-NAME] |  |  | inhibit or reduce |
| OO [Hydrogen peroxide] | exacerbate cell death | increased hypersensitivity |  |
